The text below walks through data of patent US20120077863A1, “GUANIDINO-SUBSTITUTED BI-AND POLYPHENYLS AS SMALL MOLECULE CARRIERS” (UCL Business PLC, priority 2009, published 2012).

The target of this assay is GAPD siRNA. The experiment in a line: Isothermal calorimetry (ITC) binding of SMOC to siRNA. The following applies: 6G-SMOC 250 μM in syringe, siRNA 3.5 μM in cell, FIG. 2. Here is the method:
An isothermal calorimetry experiment (ITC) was carried out to analyse the strength of the binding between the 6G-SMOG compound shown below and siRNA targeted to the […].
6G-SMOC at a concentration of 250 μM was loaded into the syringe of a Microcal VP-ITC calorimeter (450 μl), and the cell (1.8 ml) filled with GAPD siRNA (Dharmacon RNAi Technologies) at a concentration of 3.5 μM. A total of 37 injections of 8 μl each were made at 4 minute intervals to ensure total saturation of the siRNA. The binding curve was plotted using Origin 6.0 (Microcal) and the binding constants calculated.
In general terms: Isothermal titration calorimetry measures the heat released or taken up as one component is titrated into another.

What is called Kd is the concentration at which binding is half-saturated. Consider `N=C(N)NCCOc1cccc(-c2ccc(-c3cccc(OCCNC(=N)N)c3OCCNC(=N)N)c(OCCNC(=N)N)c2OCCNC(=N)N)c1OCCNC(=N)N` [6G-SMOC], for which the Kd is about 80 µM.
